This note sets out measurements from patent US6436874B1, “Synergistic herbicidal agents based on leaf herbicides containing phosphorus, imidazolinones and hormone weed killers” (priority 1998, dated 2002).

Assay type in all cases: in vivo
One test has as its system Hedyotis verticillata. Nature of the test: Field trial, herbicidal activity against Hedyotis verticillata in oil palm plantation. To be noted: for inhibition at 50 g/ha: Scleromitrion verticillatum, No. 14, dose 50 g of AS/ha, read-out: Herbicidal activity (%), w. after appl. How it is done: (§1) In an oil palm plantation, the economically important tropical weed Hedyotis verticillata was grown on plots of the dimensions 2×5 m under natural outdoor conditions and treated with the herbicides A1.2, B1 and C1 or their mixtures in a tank mix under standard conditions using a plot sprayer, at a water application rate of 450 liters of water per hectare (over-the-top application to the weeds; plant density initially more than 95% ground coverage). At intervals of 1, 2, 3, 4, 5, 6, 7 and 8 weeks after the application, the herbicidal efficacy of the active compounds or active compound mixtures was evaluated visually on the basis of the treated plots, in comparison with untreated control plots. The damage to and development of all above-ground parts of the plants were recorded. Evaluation was carried out using a percentage scale (100% effect=all plants killed; 50% effect=50% of the plants and the green parts of the plants killed; 0% effect=no noticeable effect=like control plot). The evaluation values of in each case 4 plots were averaged.

A further test has as its system Asystasia intrusa. Nature of the test: Field trial, herbicidal activity against Asystasia intrusa in rubber tree plantation. As to conditions: for Activity (%), w. after appl.: No. 16, dose 40 g of AS/ha; for inhibition at 50 g/ha: Asystasia intrusa, No. 3, dose 50 g of AS/ha. How it is done:
as §1
In a rubber tree plantation, plots with the tropical weed Asystasia intrusa were grown under natural outdoor conditions (dimensions of the plots 2 x 5 m). The herbicides or their mixtures in a tank mix were applied under standard conditions (over-the-top application using a plot sprayer, water application rate 450 l/ha). In intervals of 4, 7, 13, 17 and 21 weeks after the application, the herbicidal efficacy of the active compounds or their mixtures was evaluated visually on the basis of the treated plots, in comparison with untreated control plots. The damage to and the development of all above-ground parts of the plants were recorded. Evaluation was carried out as described in Example 1.

The next test concerns Axonopus compressus. Nature of the test: Field trial, herbicidal activity against Axonopus compressus in rubber tree plantation. To be noted: for Activity (%), w. after appl.: No. 16, dose 40 g of AS/ha; for inhibition at 50 g/ha: Axonopus compressus, No. 3, dose 50 g of AS/ha. Here is the method:
as §1
In a rubber tree plantation, plots with the tropical weed Axonopus compressus were grown under natural outdoor conditions (plot dimensions 2×5 m). The herbicides or their mixtures in a tank mix were applied under standard conditions using a plot spayer at a water application rate of 450 liters of water per hectare (over-the-top application). At intervals of 4, 7, 13, 17 and 21 weeks after the application, the herbicidal efficacy of the active compounds or active compound mixtures was evaluated visually on the basis of the treated plots, in comparison with untreated control plots. The damage to and development of all above-ground parts of the plants were recorded. Evaluation was carried out as described in Example 1.

Structures are written as SMILES. Where two headings read alike, the source gives them in different places.

With `O=C([O-])COc1ccc(Cl)cc1Cl.[Na+]` [C1, 2,4-D-sodium salt], the “Herbicidal activity (%), w. after appl.” value came out at 6% in the test with Hedyotis verticillata (No. 15, dose 40 g of AS/ha, 1 w. after appl.); 5% with Hedyotis verticillata (No. 15, dose 40 g of AS/ha, 2 w. after appl.); 5% in the test on Hedyotis verticillata (No. 15, dose 40 g of AS/ha, 3 w. after appl.); 4% with Hedyotis verticillata (No. 15, dose 40 g of AS/ha, 4 w. after appl.); 0% in the test on Hedyotis verticillata (No. 15, dose 40 g of AS/ha, 5 w. after appl.); 0% with Hedyotis verticillata (No. 15, dose 40 g of AS/ha, 6 w. after appl.). Besides, the “Herbicidal activity (%), w. after appl.” value in the test on Hedyotis verticillata (No. 15, dose 40 g of AS/ha, 7 w. after appl.) is on record as 0%; in the test on Hedyotis verticillata (No. 15, dose 40 g of AS/ha, 8 w. after appl.), 0%; in the test on Hedyotis verticillata (No. 16, dose 20 g of AS/ha, 1 w. after appl.) it was 6%; with Hedyotis verticillata (No. 16, dose 20 g of AS/ha, 2 w. after appl.), 5%; with Hedyotis verticillata (No. 16, dose 20 g of AS/ha, 3 w. after appl.) it was 5%; in the test with Hedyotis verticillata (No. 16, dose 20 g of AS/ha, 4 w. after appl.), 1%. In addition, the “Herbicidal activity (%), w. after appl.” value was found to be 0% in the test with Hedyotis verticillata (No. 16, dose 20 g of AS/ha, 5 w. after appl.); 0% with Hedyotis verticillata (No. 16, dose 20 g of AS/ha, 6 w. after appl.); 0% in the test with Hedyotis verticillata (No. 16, dose 20 g of AS/ha, 7 w. after appl.); 0% with Hedyotis verticillata (No. 16, dose 20 g of AS/ha, 8 w. after appl.). The “Activity (%), w. after appl.” value with Asystasia intrusa (4 w. after appl.) is listed as 77%; in the test with Asystasia intrusa (7 w. after appl.), 67%; in the test with Asystasia intrusa (13 w. after appl.), 20%; with Asystasia intrusa (17 w. after appl.), 10%; in the test with Asystasia intrusa (21 w. after appl.), 8%; in the test on Axonopus compressus (4 w. after appl.) it was 5%. The “Activity (%), w. after appl.” value with Axonopus compressus (7 w. after appl.) turned out to be 5%; with Axonopus compressus (13 w. after appl.) it was 0%; in the test on Axonopus compressus (17 w. after appl.) it was 0%; with Axonopus compressus (21 w. after appl.) it was 0%.

Take `CC(C)C1(C)N=C(c2ncccc2C(=O)O)NC1=O` (centres unmarked) [B1, Imazapyr]: the inhibition at 50 g/ha in the test with Hedyotis verticillata (1 w. after appl.) amounted to 8%; with Hedyotis verticillata (2 w. after appl.), 5%; in the test on Hedyotis verticillata (3 w. after appl.), 5%; in the test with Hedyotis verticillata (4 w. after appl.), 5%; with Hedyotis verticillata (5 w. after appl.), 10%; in the test with Hedyotis verticillata (6 w. after appl.), 13%. Moreover, the inhibition at 50 g/ha with Hedyotis verticillata (7 w. after appl.) was 15%; with Hedyotis verticillata (8 w. after appl.) it was 15%; with Asystasia intrusa (4 w. after appl.), 45%; with Asystasia intrusa (7 w. after appl.), 40%; in the test on Asystasia intrusa (13 w. after appl.), 40%; in the test on Asystasia intrusa (17 w. after appl.), 47%. Besides, the inhibition at 50 g/ha with Asystasia intrusa (21 w. after appl.) was 53%; with Axonopus compressus (4 w. after appl.), 35%; in the test on Axonopus compressus (7 w. after appl.) it was 35%; in the test with Axonopus compressus (13 w. after appl.), 45%; in the test on Axonopus compressus (17 w. after appl.), 45%; in the test with Axonopus compressus (21 w. after appl.), 50%.
